Test results taken from patent US20230174523A1, “BENZENESULFONAMIDE DERIVATIVES AS TRAP1 MODULATORS AND USES THEREOF” (Amathus Therapeutics, Inc., priority 2020, published 2023).
pEC50: −log10 of the molar value.

Target: T1, TRAP1 enzyme (Homo sapiens, UniProt Q12931)
T1 sequence (Q12931 60-704): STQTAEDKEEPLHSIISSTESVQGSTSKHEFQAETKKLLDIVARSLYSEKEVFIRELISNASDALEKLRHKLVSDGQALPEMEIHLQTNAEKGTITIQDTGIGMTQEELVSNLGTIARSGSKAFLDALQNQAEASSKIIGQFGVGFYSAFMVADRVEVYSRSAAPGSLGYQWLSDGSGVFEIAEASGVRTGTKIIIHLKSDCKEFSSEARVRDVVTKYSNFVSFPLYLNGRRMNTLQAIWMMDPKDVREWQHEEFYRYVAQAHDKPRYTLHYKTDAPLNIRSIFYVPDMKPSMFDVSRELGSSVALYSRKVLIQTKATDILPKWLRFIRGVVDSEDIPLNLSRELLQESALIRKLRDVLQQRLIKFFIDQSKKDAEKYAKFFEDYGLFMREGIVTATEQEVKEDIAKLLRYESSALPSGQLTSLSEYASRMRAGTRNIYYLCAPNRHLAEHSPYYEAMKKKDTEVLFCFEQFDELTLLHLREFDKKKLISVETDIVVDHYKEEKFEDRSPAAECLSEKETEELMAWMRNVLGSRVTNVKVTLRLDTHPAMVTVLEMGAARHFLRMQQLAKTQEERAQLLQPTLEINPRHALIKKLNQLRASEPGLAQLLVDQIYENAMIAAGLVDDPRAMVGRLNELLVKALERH
Experiment: Malachite green phosphate assay of TRAP1 ATPase activity
Format: biochemical
Details: for pEC50: TRAP1 ATPase activation, 150 nM Trap1, 20 μM ATP, geometric mean, read-out: Malachite Green Fluor DRC: GeoMean EC50; for Emax: read-out: Malachite Green Fluor DRC: Mean Emax
Method: The Potency of test compounds to modulate the ATPase activity of TRAP1 enzyme was evaluated using malachite green phosphatase assay. The assay is based on quantification of the green complex formed between Malachite Green, molybdate and inorganic phosphate generated in the phosphatase reaction. Assays were performed using a Malachite Green assay kit. All the assays were carried out in a 96-well transparent plate. The buffer used was 50 mM HEPES (pH 7.5), 20 mM KCl, 4 mM MgCl2 and 0.05% BSA. 150 nM Trap1 enzyme was incubated with various concentrations of the test compound (0.78 μM-100 μM) at 37° C. for 30 mins. 20 μM ATP was added to each well (except blank wells) to start the reaction and the plate was then incubated at 37° C. for 180 mins. 10 μl of the reaction volume of each sample was then transferred to a white 384-well proxiplate in quadruplets. 2.5 μl of Malachite Green reagent was added to all the wells and the plate was equilibrated for 15 mins. The reaction was stopped by adding 12% H2SO4 and the plate was read for fluorescence at 620 nm (λex=573 nm). The amount of phosphate released was estimated from a phosphate standard curve generated at the same experimental conditions. Emax (Maximal percent activation) and EC50 (concentration of test compound for half maximal activation) were estimated by fitting the dose response data to a sigmoidal curve fitting equation using Graphpad Prism software V.7.0.

Row | Structure (SMILES) | pEC50 | Emax [%]
1 | COc1ccc(NC(=O)c2ccccc2C(F)(F)F)cc1S(=O)(=O)N1CCCCC1 [Compound 41] | 4.70 to 5.00 | 160 to 199
2 | COc1ccc(NC(=O)c2cnccc2C)cc1S(=O)(=O)Nc1ccccc1C [Compound 64] | 4.00 to 4.70 | 160 to 199
3 | COc1ccc(NC(=O)c2cnco2)cc1S(=O)(=O)Nc1ccc(Br)cc1 [Compound 91, N-(3-(N-(4-bromophenyl)sulfamoyl)-4-methoxyphenyl) oxazole-5-carboxamide] | 4.00 to 4.70 | 160 to 199
4 | CC(=O)c1c(C)[nH]c(C(=O)Nc2cccc(S(=O)(=O)N3CCCC3)c2)c1C [Compound 148] | 4.70 to 5.00 | 200 to 300
5 | O=C(Nc1cccc(S(=O)(=O)Nc2ccc(Br)cc2)c1)c1cnc(-c2ccccc2)[nH]1 [Compound 169] | 4.70 to 5.00 | 200 to 300
6 | CCc1ccc(NC(=O)c2cnc(-c3ccccc3)[nH]2)cc1S(=O)(=O)Nc1ccc(Br)cc1 [Compound 170] | > 5.00 | 160 to 199
7 | COc1ccc(NC(=O)c2ncco2)cc1S(=O)(=O)Nc1ccc(Br)cc1 [Compound 172] | > 5.00 | 160 to 199
8 | COc1ccc(NC(=O)c2cnc(-c3ccccc3)o2)cc1S(=O)(=O)Nc1ccc(Br)cc1 [Compound 185] | 4.70 to 5.00 | 160 to 199
9 | O=C(Nc1ccc(F)c(S(=O)(=O)Nc2ccc(Br)cc2)c1)c1cnc(C(F)(F)F)[nH]1 [Compound 186] | 4.00 to 4.70 | 200 to 300
10 | COc1ccc(NC(=O)c2cnc(-c3ccccc3)[nH]2)cc1S(=O)(=O)Nc1ccccc1C [Compound 201] | 4.70 to 5.00 | 160 to 199
11 | COc1ccc(NC(=O)c2cnc(-c3ccccc3)[nH]2)cc1S(=O)(=O)Nc1ccncc1 [Compound 213] | 4.00 to 4.70 | 160 to 199
12 | CCc1ccc(NC(=O)c2cnc(C(F)(F)F)[nH]2)cc1S(=O)(=O)Nc1ccc(Br)cc1 [Compound 216] | > 5.00 | 200 to 300
13 | O=C(Nc1ccc(F)c(S(=O)(=O)Nc2ccc(F)cc2)c1)c1cnc(C(F)(F)F)[nH]1 [Compound 220] | 4.70 to 5.00 | 160 to 199
14 | COc1ccc(NC(=O)c2cnc(C(F)(F)F)[nH]2)cc1S(=O)(=O)Nc1ccccc1 [Compound 223] | 4.70 to 5.00 | 160 to 199
15 | COc1ccc(NC(=O)c2cnc(C(F)(F)F)[nH]2)cc1S(=O)(=O)Nc1ccc(C)cc1 [Compound 224] | 4.00 to 4.70 | 123 to 159
16 | COc1ccc(NC(=O)c2ncc(C(F)(F)F)[nH]2)cc1S(=O)(=O)Nc1ccc(Br)cc1 [Compound 229, N-(3-(N-(4-bromophenyl)sulfamoyl)-4-methoxyphenyl)-5-(trifluoromethyl)-1H-imidazole-2-carboxamide] | 4.00 to 4.70 | 160 to 199
17 | COc1ccc(NC(=O)c2cnc(C(F)(F)F)[nH]2)cc1S(=O)(=O)Nc1ccccc1C [Compound 232] | > 5.00 | 123 to 159
18 | COc1ccc(NC(=O)c2cnc(-c3ccccc3)[nH]2)cc1S(=O)(=O)N(CCCCCC(=O)O)c1ccc(Br)cc1 [Compound 243, 6-((N-(4-bromophenyl)-2-methoxy-5-(2-phenyl-1H-imidazole-5-carboxamido)phenyl)sulfonamido) hexanoic acid] | 4.70 to 5.00 | > 300
19 | COc1ccc(NC(=O)c2cnc[nH]2)cc1S(=O)(=O)N(CCCCCCO)c1ccc(Br)cc1 [Compound 246, N-(3-(N-(4-bromophenyl)-N-(6-hydroxyhexyl)sulfamoyl)-4-methoxyphenyl)-1H-imidazole-5-carboxamide] | 4.00 to 4.70 | 200 to 300
20 | CCOC(=O)CCCCCN(c1ccc(Br)cc1)S(=O)(=O)c1cc(NC(=O)c2ncco2)ccc1OC [Compound 247] | > 5.00 | 123 to 159
21 | COc1ccc(NC(=O)c2cnc[nH]2)cc1S(=O)(=O)N(CCCCCCBr)c1ccc(Br)cc1 [Compound 251, N-(3-(N-(6-bromohexyl)-N-(4-bromophenyl)sulfamoyl)-4-methoxyphenyl)-1H-imidazole-5-carboxamide] | > 5.00 | 200 to 300
22 | COc1ccc(NC(=O)c2cnc(-c3ccccc3)[nH]2)cc1S(=O)(=O)N(CCCCCCO)c1ccc(Br)cc1 [Compound 253] | 4.70 to 5.00 | 160 to 199
23 | COc1ccc(NC(=O)c2ncco2)cc1S(=O)(=O)N(CCCCCCO)c1ccc(Br)cc1 [Compound 255] | 4.70 to 5.00 | 160 to 199
24 | COc1ccc(NC(=O)c2ncco2)cc1S(=O)(=O)N(CCCCCC[P+](c1ccccc1)(c1ccccc1)c1ccccc1)c1ccc(Br)cc1 [Compound 259] | > 5.00 | > 300
25 | COc1ccc(NC(=O)c2cnc(C(F)(F)F)[nH]2)cc1S(=O)(=O)N(CCCCCC[P+](c1ccccc1)(c1ccccc1)c1ccccc1)c1ccc(Br)cc1 [Compound 260] | > 5.00 | 160 to 199
26 | COc1ccc(NC(=O)c2cnc(C(F)(F)F)[nH]2)cc1S(=O)(=O)N(CCCCCCBr)c1ccc(Br)cc1 [Compound 262] | 4.70 to 5.00 | 200 to 300
27 | CCOC(=O)CCCCCN(c1ccc(Br)cc1)S(=O)(=O)c1cc(NC(=O)c2cnc(C(F)(F)F)[nH]2)ccc1OC [Compound 263] | 4.70 to 5.00 | 160 to 199
28 | Cc1ccc(NS(=O)(=O)c2cccc(NC(=O)c3cnc(C(F)(F)F)[nH]3)c2)cc1 [Compound 271] | 4.70 to 5.00 | 160 to 199
29 | Cc1ccc(NS(=O)(=O)c2cc(NC(=O)c3cnc(C(F)(F)F)[nH]3)ccc2F)cc1 [Compound 278] | 4.70 to 5.00 | 160 to 199

The next lines start with the values.

Row | pEC50 | Emax [%] | Structure (SMILES)
30 | 4.00 to 4.70 | 160 to 199 | COc1ccc(NC(=O)c2cnccc2C)cc1S(=O)(=O)Nc1ccc(C)cc1 [Compound 54]
31 | 4.00 to 4.70 | 200 to 300 | COc1ccc(NC(=O)c2cnc(C(F)(F)F)[nH]2)cc1S(=O)(=O)Nc1ccc(Br)cc1 [Compound 105]
32 | 4.00 to 4.70 | 160 to 199 | COc1ccc(NC(=O)c2cnc(-c3ccccc3)[nH]2)cc1S(=O)(=O)N(C)c1ccc(Br)cc1 [Compound 164]
33 | 4.70 to 5.00 | 200 to 300 | O=C(Nc1ccc(F)c(S(=O)(=O)Nc2ccc(Br)cc2)c1)c1cnc(-c2ccccc2)[nH]1 [Compound 168]
34 | > 5.00 | 200 to 300 | COc1ccc(NC(=O)c2cnc(-c3ccccc3)[nH]2)cc1S(=O)(=O)Nc1ccc(F)cc1 [Compound 171]
35 | > 5.00 | 160 to 199 | COc1ccc(NC(=O)c2cnc(-c3ccccc3)[nH]2)cc1S(=O)(=O)N1Cc2ccc(F)cc2C1 [Compound 200]
36 | 4.70 to 5.00 | 160 to 199 | COc1ccc(NC(=O)c2cnc(C(F)(F)F)[nH]2)cc1S(=O)(=O)N1Cc2cccc(F)c2C1 [Compound 225]
37 | 4.70 to 5.00 | 200 to 300 | O=C(Nc1cccc(S(=O)(=O)Nc2ccc(Br)cc2)c1)c1cnc(C(F)(F)F)[nH]1 [Compound 228]
38 | > 5.00 | 200 to 300 | COc1ccc(NC(=O)c2cnc(-c3ccccc3)[nH]2)cc1S(=O)(=O)N(CCCCCC[P+](c1ccccc1)(c1ccccc1)c1ccccc1)c1ccc(Br)cc1 [Compound 242]
39 | 4.70 to 5.00 | 200 to 300 | COc1ccc(NC(=O)c2ncco2)cc1S(=O)(=O)N(CCCCCC(=O)O)c1ccc(Br)cc1 [Compound 250]
40 | 4.00 to 4.70 | > 300 | COc1ccc(NC(=O)c2cnc(C(F)(F)F)[nH]2)cc1S(=O)(=O)N(CCCCCCO)c1ccc(Br)cc1 [Compound 257]
41 | 4.70 to 5.00 | 160 to 199 | COc1ccc(NC(=O)c2cnc(C(F)(F)F)[nH]2)cc1S(=O)(=O)N(CCCCCC(=O)O)c1ccc(Br)cc1 [Compound 264]
42 | > 5.00 | 160 to 199 | COc1ccc(NC(=O)c2cnc[nH]2)cc1S(=O)(=O)N(CCCCCCN)c1ccc(Br)cc1 [Compound 266, N-(3-(N-(6-aminohexyl)-N-(4-bromophenyl)sulfamoyl)-4-methoxyphenyl)-1H-imidazole-5-carboxamide]
43 | 4.70 to 5.00 | 200 to 300 | CCc1ccc(NC(=O)c2cnc(C(F)(F)F)[nH]2)cc1S(=O)(=O)Nc1ccc(C)cc1 [Compound 270]
44 | 4.70 to 5.00 | 200 to 300 | O=C(Nc1ccc(OCCCCCCO)c(S(=O)(=O)Nc2ccc(Br)cc2)c1)c1cnc[nH]1 [Compound 274]
45 | 4.70 to 5.00 | 123 to 159 | CCc1ccc(NC(=O)c2cnccc2C)cc1S(=O)(=O)Nc1ccc(C)cc1 [Compound 277]
